From patent US20230292776A1, “GAS PHASE TREATMENT OF PRODUCE” (priority 2022, published 2023) come the findings set out here.

Series [1] concerns Penicillium italicum (Pi). Description: Antifungal activity of vapor against Penicillium italicum (Pi) in wounded, infected mandarins. It counts as in vivo. Here is the method:
(§1) Example 2. The antifungal activity of allyl isothiocyanate (AITC) and DADS vapor was tested against Pd and Penicillium italicum (Pi) in mandarins. All samples were wounded by puncturing with a screw. Mandarins were infected by dispensing either 1000 Pd spores or 1000 Pi spores suspended in 10 μL into the wound. The test groups consisted of mandarins that were: uninfected and untreated; uninfected and treated by dipping in a solution of 1 g/L of imazalil; infected with Pd and untreated; infected with Pd and exposed to AITC; infected with Pd and exposed to DADS; infected with Pi and untreated; infected with Pi and exposed to AITC; and infected with Pi and exposed to DADS. Exposure to AITC or DADS consisted of exposing the mandarins for 72 hours to the vapor of 3 mL of the respective compound dispensed in a Petri dish. […] DADS vapor reduced the incidence of Pd mold by 85% and Pi mold by 30% compared to the respective untreated/infected test groups. […] Both AITC and DADS were effective at preventing fungal growth. The inhibition from AITC was approximately 100%, with some changes in visible appearance.

In the next series the test system is grapes. Description: Visible appearance of vapor-treated grapes. It counts as in vivo, grape. Here is the method: (§2) Example 12. The antifungal activity of AITC and DADS vapor against Botrytis cinerea (Bc) in grapes was tested. All samples were wounded by making a 3 mm deep puncture in the skin. Samples were infected by dispensing 1000 Bc spores suspended in 10 μL of water in the wound. The test groups consisted of grapes that were: uninfected and untreated; infected and untreated; exposed to the vapor of 3 mL of AITC in a Petri dish for 72 hours; and exposed to the vapor of 3 mL of DADS in a Petri dish for 72 hours. FIG. 17 quantifies the infection results. […] Both AITC and DADS vapor were effective at controlling Bc mold. Treatment with AITC can potentially lead to changes in color or flavor of the grapes.

A further series relates to Botrytis cinerea (Bc). The series can be described thus: Antifungal activity of vapor against Botrytis cinerea (Bc) in grapes. It counts as in vivo. The conditions noted are these: Example 12; vapor of 3 mL in a Petri dish for 72 hours. Here is the method:
as §2

The test system of the next series is mandarins. The series can be described thus: Visible appearance of vapor-treated mandarins. It is filed as in vivo, mandarin. Here is the method: Example 1. The antifungal activity of diallyl disulfide (DADS) vapor against Penicillium digitatum (Pd) was tested in mandarins. All samples were wounded by puncturing with a screw and infected by dispensing 1000 Pd spores suspended in 10 μL of water into each wound. The test groups consisted of mandarins that were: untreated; dipped in a solution of 1 g/L of imazalil; and exposed for 72 hours to the vapor of 3 mL of DADS in a Petri dish.
as §1
Example 3. The antifungal activity of a reduced dose of AITC vapor against Pd in mandarins was tested. All samples were wounded by puncturing with a screw. Mandarins were infected by dispensing 1000 Pd spores suspended in 10 μL of water into each wound. The test groups consisted of mandarins that were: uninfected and untreated; infected with Pd and untreated; and exposed to the vapor of 500 μL of AITC in a Petri dish for 72 hours.
Example 4. The antifungal activity of a range of AITC vapor concentrations was tested against Pd in mandarins. All mandarins were wounded by puncturing with a screw and infected by dispensing 1000 Pd spores suspended in 10 μL of water in each wound. The fruit was then placed in an airtight container, a range of AITC volumes were disposed onto a Whatman filter paper disc, the disc was suspended in front of a battery-powered fan, and the container closed for 18 hours. The mandarins were then left at ambient temperature and high humidity for 6 days. The test groups were mandarins that were infected and untreated, and infected and treated with 62.5 μL 125 μL 250 μL and 500 μL on the filter paper disc. […]
Example 5. […] The test groups were then left at ambient temperature, high humidity, and assessed for Pd mold after 6 days. […]

The mark [2] stands for this setting: Example 2, 72 hours vapor of 3 mL.

On to `C=CCN=C=S` [AITC, allyl isothiocyanate], for which, in series [1] (setting [2]), the “inhibition of fungal growth (Pi)” value is recorded as “approximately 100%”. Further, the “visible appearance of grapes” value in the series on grapes (in vivo) was “darkening of the fruit”. Further, the “Bc mold in grapes” value in the series on Botrytis cinerea (Bc) is “substantially eliminated Bc mold”. Also, the “fruit with spotting and darkening of the peel” value in the series on mandarins (Example 5, 125 μL, 2 hour treatment) was 62.5%. Further, the “visible appearance of mandarins” value in the series on mandarins (in vivo) is on record as “visibly darker than untreated fruit”.

Consider `C=CCSSCC=C` [DADS, diallyl disulfide], for which the “reduction of the incidence of Pi mold compared to untreated/infected test group” value in series [1] (Example 2, 72 hours vapor of 3 mL in a Petri dish) was 30%. In the series on grapes (Example 12, vapor of 3 mL for 72 hours), the “visible appearance of grapes” value was “appeared unchanged”. The “Bc mold in grapes” value in the series with Botrytis cinerea (Bc) is “substantially eliminated Bc mold”. In addition, the “visible appearance of mandarins” value is “no visible degradation or discoloration” with mandarins (Example 1, 72 hours vapor of 3 mL) and “No difference in appearance” in the series on mandarins (setting [2]).
